Experimental data published in article PMC11739599 (Nature Communications, 2025).
pIC50: −log10 of the molar value.

Tests used:
Assay in all cases: KINOMEscan panel
Type in all cases: biochemical
RSK3 = RSK3 (Homo sapiens, UniProt Q15349)
RSK4 = RSK4 (Homo sapiens, UniProt Q9UK32)
[1] = biological target: RSK1 (ribosomal protein S6 kinase A1) (Homo sapiens, UniProt Q15418)
RSK2 = RSK2 (Homo sapiens, UniProt P51812)
RSK2, sequence (P51812 whole entry): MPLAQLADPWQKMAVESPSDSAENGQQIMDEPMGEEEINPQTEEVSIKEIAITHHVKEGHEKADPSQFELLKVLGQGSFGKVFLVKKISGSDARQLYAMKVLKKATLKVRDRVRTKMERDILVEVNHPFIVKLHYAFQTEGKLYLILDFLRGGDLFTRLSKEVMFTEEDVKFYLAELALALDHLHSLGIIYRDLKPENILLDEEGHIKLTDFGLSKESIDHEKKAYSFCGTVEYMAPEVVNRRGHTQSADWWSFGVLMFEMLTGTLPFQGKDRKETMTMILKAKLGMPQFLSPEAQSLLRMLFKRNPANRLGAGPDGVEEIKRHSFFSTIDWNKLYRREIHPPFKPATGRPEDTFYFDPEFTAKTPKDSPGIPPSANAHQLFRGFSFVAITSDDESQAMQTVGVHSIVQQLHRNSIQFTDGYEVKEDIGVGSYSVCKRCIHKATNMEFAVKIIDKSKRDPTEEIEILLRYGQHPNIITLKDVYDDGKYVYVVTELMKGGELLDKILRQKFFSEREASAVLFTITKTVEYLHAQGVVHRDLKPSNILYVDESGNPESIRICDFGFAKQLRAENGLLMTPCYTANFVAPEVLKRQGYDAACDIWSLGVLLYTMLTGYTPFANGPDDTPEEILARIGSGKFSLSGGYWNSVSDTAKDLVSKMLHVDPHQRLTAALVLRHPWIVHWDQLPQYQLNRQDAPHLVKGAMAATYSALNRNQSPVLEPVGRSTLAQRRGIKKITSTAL

RSK3, sequence (Q15349 whole entry): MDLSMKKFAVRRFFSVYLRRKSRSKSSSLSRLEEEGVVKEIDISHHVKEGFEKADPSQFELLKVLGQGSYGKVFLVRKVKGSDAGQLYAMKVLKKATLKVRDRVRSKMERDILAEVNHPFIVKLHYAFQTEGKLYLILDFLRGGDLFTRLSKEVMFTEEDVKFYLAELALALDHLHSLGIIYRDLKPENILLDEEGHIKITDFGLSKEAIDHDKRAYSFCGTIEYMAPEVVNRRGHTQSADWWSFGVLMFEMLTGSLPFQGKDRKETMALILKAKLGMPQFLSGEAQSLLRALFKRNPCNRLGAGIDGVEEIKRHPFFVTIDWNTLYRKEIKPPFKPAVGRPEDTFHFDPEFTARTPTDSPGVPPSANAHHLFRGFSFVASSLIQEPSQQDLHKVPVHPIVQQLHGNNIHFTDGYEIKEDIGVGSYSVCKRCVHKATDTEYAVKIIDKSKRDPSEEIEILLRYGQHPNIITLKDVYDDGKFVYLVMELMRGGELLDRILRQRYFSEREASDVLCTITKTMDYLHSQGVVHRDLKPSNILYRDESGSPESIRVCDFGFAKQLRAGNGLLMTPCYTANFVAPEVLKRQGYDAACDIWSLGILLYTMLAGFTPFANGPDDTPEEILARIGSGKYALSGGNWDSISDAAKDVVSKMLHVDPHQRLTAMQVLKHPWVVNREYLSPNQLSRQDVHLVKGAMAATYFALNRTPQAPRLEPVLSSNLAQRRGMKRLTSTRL
RSK1 (ribosomal protein S6 kinase A1), sequence (Q15418 whole entry): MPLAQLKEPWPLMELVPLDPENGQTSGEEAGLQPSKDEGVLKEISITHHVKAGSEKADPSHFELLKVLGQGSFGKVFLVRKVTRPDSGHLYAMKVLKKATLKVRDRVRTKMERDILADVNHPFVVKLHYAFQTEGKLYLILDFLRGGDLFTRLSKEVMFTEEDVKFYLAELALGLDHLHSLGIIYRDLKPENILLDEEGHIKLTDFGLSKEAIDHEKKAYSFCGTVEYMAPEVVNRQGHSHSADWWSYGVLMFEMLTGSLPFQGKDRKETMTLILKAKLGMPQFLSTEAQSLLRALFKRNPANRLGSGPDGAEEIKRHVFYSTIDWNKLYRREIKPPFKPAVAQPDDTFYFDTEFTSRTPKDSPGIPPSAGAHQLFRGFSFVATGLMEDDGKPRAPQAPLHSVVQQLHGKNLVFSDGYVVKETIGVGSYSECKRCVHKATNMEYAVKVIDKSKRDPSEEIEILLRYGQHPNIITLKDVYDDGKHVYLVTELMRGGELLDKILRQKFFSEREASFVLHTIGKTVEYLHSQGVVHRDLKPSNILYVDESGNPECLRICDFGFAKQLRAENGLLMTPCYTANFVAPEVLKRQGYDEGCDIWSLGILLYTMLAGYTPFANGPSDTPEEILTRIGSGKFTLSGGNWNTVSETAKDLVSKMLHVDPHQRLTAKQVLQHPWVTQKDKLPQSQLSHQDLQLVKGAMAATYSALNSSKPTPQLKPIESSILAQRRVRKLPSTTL
RSK4, sequence (Q9UK32 whole entry): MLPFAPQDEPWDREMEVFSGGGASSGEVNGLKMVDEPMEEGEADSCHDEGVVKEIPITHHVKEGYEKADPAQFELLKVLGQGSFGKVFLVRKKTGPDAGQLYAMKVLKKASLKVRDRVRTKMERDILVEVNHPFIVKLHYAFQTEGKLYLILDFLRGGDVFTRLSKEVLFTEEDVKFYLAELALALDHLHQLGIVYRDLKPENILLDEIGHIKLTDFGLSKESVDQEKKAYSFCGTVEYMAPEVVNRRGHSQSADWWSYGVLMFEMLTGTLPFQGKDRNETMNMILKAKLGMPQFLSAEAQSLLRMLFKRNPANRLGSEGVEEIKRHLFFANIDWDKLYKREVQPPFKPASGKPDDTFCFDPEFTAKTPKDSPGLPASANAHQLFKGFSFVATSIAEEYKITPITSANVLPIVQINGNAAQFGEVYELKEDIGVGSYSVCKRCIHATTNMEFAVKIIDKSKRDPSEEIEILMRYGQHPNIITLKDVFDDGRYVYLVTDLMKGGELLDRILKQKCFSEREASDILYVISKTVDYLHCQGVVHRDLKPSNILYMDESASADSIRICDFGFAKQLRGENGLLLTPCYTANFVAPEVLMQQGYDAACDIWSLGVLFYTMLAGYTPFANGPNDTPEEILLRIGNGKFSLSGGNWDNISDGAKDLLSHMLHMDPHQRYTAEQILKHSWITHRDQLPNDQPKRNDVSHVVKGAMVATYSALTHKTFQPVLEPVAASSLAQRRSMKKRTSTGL

pIC50 (RSK3): 9.05 | pIC50 (RSK4): 8.70 | pIC50 [1]: 8.70 | pIC50 (RSK2): 9.15
Substance: PMD-026
